Data: ChEMBL document CHEMBL4038335, “Neuroactive Steroids. 2. 3α-Hydroxy-3β-methyl-21-(4-cyano-1H-pyrazol-1'-yl)-19-nor-5β-pregnan-20-one (SAGE-217): A Clinical Next Generation Neuroactive Steroid Positive Allosteric Modulator of the (γ-Aminobutyric Acid)A Receptor” (J Med Chem, 2017)
Converted amounts (≈) assume the structure as drawn.

Assays:
Cytochrome P450 2C19 = Cytochrome P450 2C19 (Homo sapiens, UniProt P33261); test: Inhibition of CYP2C19 (unknown origin); type: ADME
[1] = Clearance in dog hepatocytes at 10 uM preincubated for 5 mins […] measured over 60 mins by HPLC-MS/MS analysis; type: ADME, cell-based, Canis lupus familiaris, Hepatocyte; conditions: 1 h
[2] = Clearance in human hepatocytes at 10 uM preincubated for 5 mins […] measured over 60 mins by HPLC-MS/MS analysis; type: ADME, cell-based, Hepatocyte; conditions: 1 h
Cytochrome P450 3A4 = Cytochrome P450 3A4 (Homo sapiens, UniProt P08684); test: Inhibition of CYP3A4 (unknown origin); type: ADME
[3] = Clearance in CD1 mouse at 5 mg/kg, iv or 20 mg/kg, po measured up to 8 hrs post dose by LC/MS-MS analysis; type: ADME, organism-based; conditions: in vivo
[4] = molecular target: Transient receptor potential cation channel subfamily V member 1 (Homo sapiens) (UniProt Q8NER1); test: Antagonist activity at human TRPV1 expressed in CHOK1 cells assessed as inhibition of capsaicin-induced Ca2+ flux at 10 uM by spectrophotometric analysis; type: cell-based
[5] = molecular target: GABA-A receptor alpha-4/beta-3/delta (Homo sapiens, UniProt P28472+P48169+); test: (§1) Positive allosteric modulation of GABAA receptor alpha4beta3delta (unknown origin) expressed in CHO cells assessed as potentiation of GABA-mediated increase in channel current under holding potential at -80 mV at 0.01 to 10 uM preincubated for 30 secs followed by GABA stimulation for 2 secs by manual patch clamp assay relative to GABA; type: cell-based; conditions: 2 s
[6] = Ratio of drug level in Sprague-Dawley rat brain to plasma at 5 mg/kg, iv measured at 30 mins post dose by LC/MS-MS analysis; type: ADME, organism-based; conditions: read-out: BPR
[7] = molecular target: GABA-A receptor; alpha-1/beta-2/gamma-2 (Homo sapiens) (UniProt P14867+P47870+P18507); test: as §1, with “alpha1beta2gamma2” for “alpha4beta3delta”, “mouse LTK” for “CHO”, “automated” for “manual”; type: cell-based
[8] = Protein binding in dog plasma at 10 uM after 6 hrs by equilibrium dialysis; type: ADME, cell-free, Canis lupus familiaris; conditions: read-out: PPB (converted)
[9] = Clearance in Sprague-Dawley rat at 5 mg/kg, iv or 20 mg/kg, po measured up to 8 hrs post dose by LC/MS-MS analysis; type: ADME, organism-based; conditions: in vivo
[10] = Protein binding in human plasma at 10 uM after 6 hrs by equilibrium dialysis; type: ADME, cell-free; conditions: read-out: PPB (converted)
Canis familiaris = test: Clearance in Beagle dog at 5 mg/kg, iv or 20 mg/kg, po measured up to 8 hrs post dose by LC/MS-MS analysis relative to hepatic blood flow; type: ADME, organism-based, Canis lupus familiaris; conditions: in vivo
Cytochrome P450 2D6 = Cytochrome P450 2D6 (Homo sapiens, UniProt P10635); test: Inhibition of CYP2D6 (unknown origin); type: ADME
[11] = Oral bioavailability in Beagle dog at 20 mg/kg measured up to 8 hrs post dose by LC/MS-MS analysis; type: ADME, organism-based, Canis lupus familiaris; conditions: in vivo
[12] = molecular target: Sigma non-opioid intracellular receptor 1 (Homo sapiens) (UniProt Q99720); test: Displacement of [3H](+)pentazocine from human sigma1-receptor at 10 uM after 120 mins by scintillation counting
[13] = molecular target: Potassium/sodium hyperpolarization-activated cyclic nucleotide-gated channel 2 (Homo sapiens, UniProt Q9UL51); test: Inhibition of HCN2 (unknown origin) by patch clamp assay
Mus musculus = test: Anticonvulsant activity in PTZ-induced seizure mouse model at 0.3 to 3 mg/kg, ip; type: functional
[14] = Protein binding in rat plasma at 10 uM after 6 hrs by equilibrium dialysis; type: ADME, cell-free; conditions: read-out: PPB (converted)
[15] = Clearance in mouse hepatic microsomes at 10 uM preincubated for 5 mins followed by NADPH addition measured over 60 mins by HPLC-MS/MS analysis; type: ADME, Microsome; conditions: liver microsomes
[16] = Displacement of [35S]TBPS from GABA-A receptor in Sprague-Dawley rat cerebral cortex cell membranes after 90 mins in presence of GABA by liquid scintillation counting
[17] = Clearance in dog hepatic microsomes at 10 uM preincubated for 5 mins followed by NADPH addition measured over 60 mins by HPLC-MS/MS analysis; type: ADME, Canis lupus familiaris, Liver, Microsome; conditions: 1 h
[18] = Clearance in mouse hepatocytes at 10 uM preincubated for 5 mins […] measured over 60 mins by HPLC-MS/MS analysis; type: ADME, cell-based, Hepatocyte; conditions: read-out: CLH (converted)
Cytochrome P450 2C9 = Cytochrome P450 2C9 (Homo sapiens, UniProt P11712); test: Inhibition of CYP2C9 (unknown origin); type: ADME
[19] = Thermodynamic aqueous solubility of compound at 10 uM sonicated for 1 min followed by incubation for 1 hr by HPLC-MS/MS; type: physicochemical; conditions: buffer; read-out: Therm_solubility
[20] = Oral bioavailability in Sprague-Dawley rat at 20 mg/kg measured up to 8 hrs post dose by LC/MS-MS analysis; type: ADME, organism-based; conditions: in vivo
[21] = molecular target: Kv channel-interacting protein 2/Potassium voltage-gated channel subfamily D member 3 (Homo sapiens, UniProt Q9NS61+Q9UK17); test: Inhibition of Kv4.3(unknown origin)/KChIP2.2 (unknown origin) by patch clamp assay
[22] = molecular target: Potassium voltage-gated channel subfamily A member 5 (Homo sapiens, UniProt P22460); test: Inhibition of Kv1.5 (unknown origin) by patch clamp assay
[23] = Protein binding in mouse plasma at 10 uM after 6 hrs by equilibrium dialysis; type: ADME, cell-free; conditions: read-out: PPB
[24] = molecular target: Sodium channel protein type 5 subunit alpha (Homo sapiens, UniProt Q14524); test: Inhibition of Nav1.5 (unknown origin) by patch clamp assay
[25] = molecular target: Glycine receptor subunit alpha-1 (Homo sapiens) (UniProt P23415); test: Binding affinity to human glycine alpha 1 receptor expressed in HEK293 cells at 10 uM by IonFlux based assay; type: cell-based
[26] = molecular target: Voltage-gated potassium channel, IKs; KCNQ1(Kv7.1)/KCNE1(MinK) (Homo sapiens, UniProt P15382+P51787); test: Inhibition of KCNQ1/minK (unknown origin) by patch clamp assay
[27] = Clearance in Beagle dog at 5 mg/kg, iv or 20 mg/kg, po measured up to 8 hrs post dose by LC/MS-MS analysis; type: ADME, organism-based, Canis lupus familiaris; conditions: in vivo
Cytochrome P450 2B6 = Cytochrome P450 2B6 (Homo sapiens, UniProt P20813); test: Inhibition of CYP2B6 (unknown origin); type: ADME
[28] = molecular target: Inward rectifier potassium channel 2 (Homo sapiens, UniProt P63252); test: Inhibition of Kir2.1 (unknown origin) by patch clamp assay
Cytochrome P450 1A2 = Cytochrome P450 1A2 (Homo sapiens, UniProt P05177); test: Inhibition of CYP1A2 (unknown origin); type: ADME
[29] = Clearance in rat hepatic microsomes at 10 uM preincubated for 5 mins followed by NADPH addition measured over 60 mins by HPLC-MS/MS analysis; type: ADME, Microsome; conditions: liver microsomes
[30] = Clearance in rat hepatocytes at 10 uM preincubated for 5 mins […] measured over 60 mins by HPLC-MS/MS analysis; type: ADME, cell-based, Hepatocyte; conditions: 1 h
[31] = Clearance in human hepatic microsomes at 10 uM preincubated for 5 mins followed by NADPH addition measured over 60 mins by HPLC-MS/MS analysis; type: ADME, Microsome; conditions: liver microsomes
[32] = Oral bioavailability in CD1 mouse at 20 mg/kg measured up to 8 hrs post dose by LC/MS-MS analysis; type: ADME, organism-based; conditions: in vivo
[33] = molecular target: Gamma-aminobutyric acid receptor subunit alpha-4/beta3/delta (Homo sapiens, UniProt O14764+P28472+P48169); test: as §1, with “mV” for “mV at 0.01 to 10 uM”, “assay” for “assay relative to GABA”; type: cell-based
[34] = Lipophilicity, logD of compound at 20 uM at pH 7.4 by HPLC/MS-MS analysis; type: physicochemical; conditions: buffer
[35] = molecular target: Voltage-gated inwardly rectifying potassium channel KCNH2 (Homo sapiens, UniProt Q12809); test: Inhibition of human ERG by patch clamp assay
[36] = molecular target: Voltage-dependent L-type calcium channel subunit alpha-1C (Homo sapiens, UniProt Q13936); test: Inhibition of Cav1.2 (unknown origin) by patch clamp assay

Chain of Sigma non-opioid intracellular receptor 1 (Homo sapiens) (Q99720 whole entry): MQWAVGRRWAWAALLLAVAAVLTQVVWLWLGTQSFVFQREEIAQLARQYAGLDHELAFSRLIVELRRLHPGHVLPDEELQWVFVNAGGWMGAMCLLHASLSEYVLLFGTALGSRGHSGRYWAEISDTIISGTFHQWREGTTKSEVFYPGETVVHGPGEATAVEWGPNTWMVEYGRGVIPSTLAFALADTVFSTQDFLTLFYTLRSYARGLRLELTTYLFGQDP
Chain of Glycine receptor subunit alpha-1 (Homo sapiens) (P23415 whole entry): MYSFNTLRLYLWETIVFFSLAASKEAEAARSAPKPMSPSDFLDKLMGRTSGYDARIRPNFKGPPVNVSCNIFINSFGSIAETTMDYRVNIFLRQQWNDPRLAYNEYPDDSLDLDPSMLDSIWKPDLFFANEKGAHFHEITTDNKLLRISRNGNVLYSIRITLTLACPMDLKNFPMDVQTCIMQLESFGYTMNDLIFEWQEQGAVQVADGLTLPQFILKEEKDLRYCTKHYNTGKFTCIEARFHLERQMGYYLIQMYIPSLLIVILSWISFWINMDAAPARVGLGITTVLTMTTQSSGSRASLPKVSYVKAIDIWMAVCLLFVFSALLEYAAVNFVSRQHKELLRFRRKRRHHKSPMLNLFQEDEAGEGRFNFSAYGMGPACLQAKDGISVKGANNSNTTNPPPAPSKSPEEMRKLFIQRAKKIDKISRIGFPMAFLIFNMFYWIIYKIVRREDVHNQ
Chain of Potassium voltage-gated channel subfamily A member 5 (P22460 whole entry): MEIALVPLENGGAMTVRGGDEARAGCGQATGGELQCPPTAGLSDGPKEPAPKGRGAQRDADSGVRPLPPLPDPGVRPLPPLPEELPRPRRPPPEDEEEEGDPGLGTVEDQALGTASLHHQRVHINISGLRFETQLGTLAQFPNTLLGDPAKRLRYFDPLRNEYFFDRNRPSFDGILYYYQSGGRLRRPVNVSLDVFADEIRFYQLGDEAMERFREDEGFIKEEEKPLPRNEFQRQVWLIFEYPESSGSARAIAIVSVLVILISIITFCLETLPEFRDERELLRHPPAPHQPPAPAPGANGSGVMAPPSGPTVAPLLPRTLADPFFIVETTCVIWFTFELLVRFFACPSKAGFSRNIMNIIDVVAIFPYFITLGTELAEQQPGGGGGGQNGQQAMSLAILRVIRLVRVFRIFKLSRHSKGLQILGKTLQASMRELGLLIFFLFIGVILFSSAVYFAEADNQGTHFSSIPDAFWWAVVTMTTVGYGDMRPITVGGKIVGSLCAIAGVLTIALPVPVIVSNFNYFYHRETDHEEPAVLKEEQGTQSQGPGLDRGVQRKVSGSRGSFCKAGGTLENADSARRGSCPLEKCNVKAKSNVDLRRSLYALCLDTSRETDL
Chain of Voltage-gated potassium channel, IKs; KCNQ1(Kv7.1)/KCNE1(MinK) (P51787 whole entry): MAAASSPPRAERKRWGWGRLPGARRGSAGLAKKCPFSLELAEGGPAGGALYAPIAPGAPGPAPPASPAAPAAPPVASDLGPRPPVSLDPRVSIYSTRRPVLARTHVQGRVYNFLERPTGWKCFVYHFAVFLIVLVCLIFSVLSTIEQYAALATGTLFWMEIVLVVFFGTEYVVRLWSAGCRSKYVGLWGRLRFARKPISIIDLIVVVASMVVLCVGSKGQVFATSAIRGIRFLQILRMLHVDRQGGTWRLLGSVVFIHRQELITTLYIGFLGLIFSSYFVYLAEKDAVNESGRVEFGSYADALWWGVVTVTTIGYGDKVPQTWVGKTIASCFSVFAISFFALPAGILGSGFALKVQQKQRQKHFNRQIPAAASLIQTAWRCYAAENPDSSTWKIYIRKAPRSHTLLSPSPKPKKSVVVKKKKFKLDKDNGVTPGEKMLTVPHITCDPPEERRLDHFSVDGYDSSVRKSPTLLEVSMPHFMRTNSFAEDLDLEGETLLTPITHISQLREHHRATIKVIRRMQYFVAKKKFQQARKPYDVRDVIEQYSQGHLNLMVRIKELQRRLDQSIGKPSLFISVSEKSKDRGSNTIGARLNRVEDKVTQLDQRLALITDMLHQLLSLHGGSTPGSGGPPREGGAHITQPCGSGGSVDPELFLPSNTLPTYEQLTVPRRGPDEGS
Chain of Potassium/sodium hyperpolarization-activated cyclic nucleotide-gated channel 2 (Q9UL51 whole entry): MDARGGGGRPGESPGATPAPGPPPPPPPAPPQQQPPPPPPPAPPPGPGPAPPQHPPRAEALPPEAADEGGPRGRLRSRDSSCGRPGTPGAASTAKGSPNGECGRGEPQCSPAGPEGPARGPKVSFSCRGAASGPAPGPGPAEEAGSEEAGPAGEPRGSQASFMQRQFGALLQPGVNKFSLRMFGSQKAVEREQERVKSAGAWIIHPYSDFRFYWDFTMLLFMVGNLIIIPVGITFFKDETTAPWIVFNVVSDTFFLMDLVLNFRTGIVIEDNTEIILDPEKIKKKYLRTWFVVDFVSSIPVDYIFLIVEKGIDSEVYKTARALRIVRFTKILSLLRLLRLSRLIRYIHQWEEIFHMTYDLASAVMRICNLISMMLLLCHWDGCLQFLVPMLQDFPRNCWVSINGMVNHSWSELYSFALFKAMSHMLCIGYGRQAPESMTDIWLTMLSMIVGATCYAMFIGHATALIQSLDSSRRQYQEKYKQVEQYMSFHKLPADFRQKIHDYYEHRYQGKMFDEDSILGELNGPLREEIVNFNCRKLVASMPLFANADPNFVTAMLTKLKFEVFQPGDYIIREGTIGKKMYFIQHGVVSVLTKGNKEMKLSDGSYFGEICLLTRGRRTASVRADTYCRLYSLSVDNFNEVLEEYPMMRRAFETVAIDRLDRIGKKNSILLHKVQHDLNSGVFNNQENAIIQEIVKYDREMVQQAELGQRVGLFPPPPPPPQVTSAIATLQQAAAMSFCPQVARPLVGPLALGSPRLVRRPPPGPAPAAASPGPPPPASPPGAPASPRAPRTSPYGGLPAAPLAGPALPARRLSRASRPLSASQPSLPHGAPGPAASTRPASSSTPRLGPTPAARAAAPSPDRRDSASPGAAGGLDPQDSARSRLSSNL
Chain of Cytochrome P450 1A2 (P05177 whole entry): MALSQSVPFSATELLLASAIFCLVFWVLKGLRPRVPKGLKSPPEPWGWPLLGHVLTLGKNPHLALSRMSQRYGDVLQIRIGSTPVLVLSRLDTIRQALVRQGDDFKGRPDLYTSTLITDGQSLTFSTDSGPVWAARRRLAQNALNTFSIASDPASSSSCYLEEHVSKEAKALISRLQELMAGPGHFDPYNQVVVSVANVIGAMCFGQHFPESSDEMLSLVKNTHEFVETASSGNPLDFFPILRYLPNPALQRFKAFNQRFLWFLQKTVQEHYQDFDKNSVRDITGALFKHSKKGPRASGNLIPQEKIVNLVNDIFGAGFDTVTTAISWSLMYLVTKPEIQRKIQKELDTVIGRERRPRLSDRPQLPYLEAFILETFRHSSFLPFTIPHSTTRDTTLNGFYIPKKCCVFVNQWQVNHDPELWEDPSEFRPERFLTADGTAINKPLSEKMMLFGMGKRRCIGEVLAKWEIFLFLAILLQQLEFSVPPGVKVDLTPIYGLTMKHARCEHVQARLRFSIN
Chain of Cytochrome P450 2B6 (P20813 whole entry): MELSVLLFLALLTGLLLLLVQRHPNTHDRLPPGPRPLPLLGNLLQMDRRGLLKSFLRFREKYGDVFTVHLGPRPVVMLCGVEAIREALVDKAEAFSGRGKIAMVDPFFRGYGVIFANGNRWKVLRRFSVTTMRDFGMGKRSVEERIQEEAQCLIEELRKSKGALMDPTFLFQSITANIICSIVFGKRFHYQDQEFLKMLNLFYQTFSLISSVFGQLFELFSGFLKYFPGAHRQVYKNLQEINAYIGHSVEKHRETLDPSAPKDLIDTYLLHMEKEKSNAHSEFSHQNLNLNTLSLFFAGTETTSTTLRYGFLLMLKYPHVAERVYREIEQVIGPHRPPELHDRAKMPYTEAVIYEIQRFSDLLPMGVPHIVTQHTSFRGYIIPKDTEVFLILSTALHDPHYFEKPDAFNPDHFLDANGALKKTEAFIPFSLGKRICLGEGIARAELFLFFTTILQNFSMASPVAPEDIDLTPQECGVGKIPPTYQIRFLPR
Chain of Cytochrome P450 2D6 (P10635 whole entry): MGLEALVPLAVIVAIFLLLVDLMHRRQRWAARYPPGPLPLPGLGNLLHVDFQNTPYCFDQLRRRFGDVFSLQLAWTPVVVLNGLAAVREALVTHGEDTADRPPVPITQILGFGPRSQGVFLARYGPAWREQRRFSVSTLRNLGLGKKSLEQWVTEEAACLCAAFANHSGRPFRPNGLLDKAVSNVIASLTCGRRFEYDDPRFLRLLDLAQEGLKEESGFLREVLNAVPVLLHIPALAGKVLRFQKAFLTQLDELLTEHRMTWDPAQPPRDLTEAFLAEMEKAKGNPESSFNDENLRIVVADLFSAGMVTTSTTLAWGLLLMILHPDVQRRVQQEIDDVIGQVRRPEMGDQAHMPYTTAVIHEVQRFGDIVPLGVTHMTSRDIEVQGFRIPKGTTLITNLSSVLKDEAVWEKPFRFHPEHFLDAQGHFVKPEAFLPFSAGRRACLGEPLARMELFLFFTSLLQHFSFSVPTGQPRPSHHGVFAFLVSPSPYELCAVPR
Chain of Inward rectifier potassium channel 2 (P63252 whole entry): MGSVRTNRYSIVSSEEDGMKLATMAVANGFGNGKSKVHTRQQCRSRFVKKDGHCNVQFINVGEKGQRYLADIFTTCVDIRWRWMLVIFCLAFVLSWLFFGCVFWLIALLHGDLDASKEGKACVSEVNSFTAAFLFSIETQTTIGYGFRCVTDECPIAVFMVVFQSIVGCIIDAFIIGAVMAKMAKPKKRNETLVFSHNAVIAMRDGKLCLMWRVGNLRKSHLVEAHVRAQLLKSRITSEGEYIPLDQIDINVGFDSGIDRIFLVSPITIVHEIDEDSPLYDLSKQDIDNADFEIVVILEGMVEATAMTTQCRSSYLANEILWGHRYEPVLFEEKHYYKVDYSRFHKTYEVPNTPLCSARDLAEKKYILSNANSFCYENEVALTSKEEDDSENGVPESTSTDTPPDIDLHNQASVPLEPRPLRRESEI

Molecule C[C@@]1(O)CC[C@H]2[C@H](CC[C@@H]3[C@@H]2CC[C@]2(C)[C@@H](C(=O)Cn4cc(C#N)cn4)CC[C@@H]32)C1 [ZURANOLONE] has an IC50 (Cytochrome P450 2C19) greater than 30 µM, a CLH [1] of 10 mL/min/kg and a CLH [2] of 15 mL/min/kg. The IC50 (Cytochrome P450 3A4) was greater than 30 µM, the clearance [3] was 25 mL/min/kg and the inhibition [4] was 95%. For the same molecule, the Emax [5] was 574%, the Kp at 0.5 h [6] was 4.2 and the Emax [7] was 473%. For the same molecule, the fraction unbound at 6 h, 10 µM [8] was 0.016, the clearance [9] was 23.3 mL/min/kg and the fraction unbound at 6 h, 10 µM [10] was 0.012. The CL (Canis familiaris) was less than 10%, the IC50 (Cytochrome P450 2D6) was greater than 30 µM and the bioavailability [11] was 68%. It also gave an inhibition [12] of 88%, an IC50 [13] greater than 30 µM and an MEC (Mus musculus) of 85 nM. For the same molecule, the fraction unbound at 6 h, 10 µM [14] was 0.012, the CLhep predicted at 10 µM [15] was 70 mL/min/kg and the IC50 [16] was 0.007 µM. For the same molecule, the CLH [17] was 10 mL/min/kg, the CLint scaled at 10 µM [18] was 102 mL/min/kg and the IC50 (Cytochrome P450 2C9) was greater than 30 µM. It also gave a solubility thermodynamic at 1 h, 10 µM [19] of 2 µM (≈ 0.819 µg/mL), a bioavailability [20] of 32% and an IC50 [21] greater than 30 µM. It also gave an IC50 [22] greater than 30 µM, a fraction unbound at 6 h, 10 µM [23] of 0.01 and an IC50 [24] greater than 30 µM. The Activity [25] was 57%, the IC50 [26] was greater than 30 µM and the clearance [27] was 1.67 mL/min/kg. The IC50 (Cytochrome P450 2B6) was greater than 30 µM, the IC50 [28] was greater than 30 µM and the IC50 (Cytochrome P450 1A2) was greater than 30 µM. For the same molecule, the CLhep predicted at 10 µM [29] was 36.7 mL/min/kg, the CLH [30] was 17 mL/min/kg and the CLhep predicted at 10 µM [31] was 3.33 mL/min/kg. The bioavailability [32] was 62%, the EC50 [33] was 0.299 µM and the logD at 20 µM [34] was 4.6. For the same molecule, the IC50 [35] was greater than 30 µM and the IC50 [36] was greater than 30 µM.
